Results published in patent publication US20130022612A1, “METHODS AND COMPOSITIONS FOR MALARIA PROPHYLAXIS” (priority 2004, published 2013).
Non-standard residues stand in square brackets, D forms with d. Residues, ends and D or L forms follow the SMILES beside them. *: point of attachment. Sta = CC(C)C[C@H](N)[C@@H](O)CC(=O)O; Isovaleryl = CC(C)CC(=O)*

Key:
[1] = test system: CSP processing in P. berghei sporozoites; test: Pulse-chase metabolic labeling of CSP processing, P. berghei sporozoites; format: cell-based, Plasmodium berghei; details: two hour chase at 28° C.; 10 mM E-64, 1 mM PMSF, 0.3 mM aprotinin, 100 mM 3,4 DCl, 75 mM leupeptin, 100 mM TLCK, 1 mM pepstatin, 1 mM 1,10 phenanthroline, 5 mM EDTA
Description: P. berghei sporozoites were incubated in Dulbecco's Modified Eagle Medium (DMEM; Invitrogen, Carlsbad, Calif.) without cysteine (Cys) and methionine (Met), containing 1% BSA and […] L-[35 S]-Cys/Met (Pro-Mix, Amersham Pharmacia) in a total volume of 200 μl for one hour at 28° C. They were then washed and resuspended in DMEM/BSA containing unlabeled Cys/Met at 28° C. for the indicated time in the presence or absence of the indicated protease inhibitor. Sporozoites were then lysed and CSP was immunoprecipitated and analyzed by autoradiography as outlined below.
When sporozoites were incubated with specific inhibitors, their concentrations were as follows: 10 […] E-64; 1 mM phenylmethylsulfonyl fluoride (PMSF); 0.3 mM aprotinin; 100 mM 3,4 DCl; 75 mM leupeptin; 100 mM TLCK; 1 mM pepstatin; 1 mM 1,10 phenanthroline; 5 mM EDTA; 0.5% sodium azide. To check for toxicity by propidium iodide (PI) staining, P. berghei sporozoites were incubated in the presence or absence of the various protease inhibitors for two hours at 28° C., PI was then added to a final concentration of […] for five minutes at 28° C. The sporozoites were washed and viewed under a fluorescent microscope.
Metabolically-labeled sporozoites were lysed in lysis buffer (1% Triton X-100, 50 mM Tris-HCl pH 8.0) with 150 mM NaCl containing a protease inhibitor cocktail (Complete Mini-Tablets, Roche) for one hour at 4° C. The lysates were incubated with mAb 3D11 conjugated to agarose overnight at 4° C. with agitation, and the beads were then washed sequentially with lysis buffer containing 150 mM NaCl, high salt buffer (500 mM NaCl in lysis buffer), lysis buffer without added NaCl, and pre-elution buffer (0.5% Triton X-100, 10 mM Tris-HCl pH 6.8). CSP was eluted with 1% SDS in 0.1 M glycine pH 1.8, neutralized with 1.5 M Tris-HCl pH 8.8, and run on a 7.5% SDS-polyacrylamide gel under nonreducing conditions.
P. berghei sporozoites were metabolically labeled as previously described (Bruna-Romero, O., et al.). Briefly, sporozoites were labeled in Dulbecco's Modified Eagle Medium containing 1% BSA (DMEM/BSA) without Cys/Met and with 400 μCi/ml L-[^35S]Cys/Met for one hour at 28° C. and chased in DMEM/BSA with Cys/Met at 28° C. in the presence of 10 μM E-64 or the indicated concentrations of allicin. Labeled sporozoites were lysed in 1% Triton X-100/150 mM NaCl/50 mM Tris-HCl pH 8.0 with protease inhibitors, and lysates were incubated with 3D11-sepharose overnight at 4° C. CSP was eluted with 1% SDS in 0.1 M glycine pH 1.8, neutralized with Tris-HCl pH 8.8, and run on a 7.5% SDS-polyacrylamide gel under nonreducing conditions. The gel was fixed, enhanced with Amplify (Amersham Pharmacia), dried and exposed to film.
P. berghei sporozoites were metabolically labeled in DMEM without Cys/Met, 1% BSA and 400 μCi/ml L-[^355]-Cys/Met for 1 hour at 28° C. and then kept on ice or chased at 28° C. for the indicated times. Details of this procedure are outlined in (Coppi et al., 2005). To investigate the kinetics of processing in the presence of hepatocytes, sporozoites were labeled as above, chased at 28° C. for 1 hour and then centrifuged (300×g) onto glass coverslips with Hepa 1-6 cells and incubated at 37° C. for 5, 15 or 30 minutes. To investigate the effect of antibodies on CSP cleavage, sporozoites were labeled as above and then chased for 2 hours in the presence of the indicated antibody. Monoclonal antibodies were used as purified antibodies at the indicated concentrations and the IgG fraction of the NH2-terminal antiserum was used after isolation by Protein A (Vivapure maxiprepA; Sartorius, Edgewood, N.Y.). In all cases, labeled sporozoites (with or without Hepa 1-6 cells) were lysed and labeled CSP was immunoprecipitated with mAb-3D11 conjugated to sepharose or in the case of P. falciparum CSP, with mAb-2A10 conjugated to sepharose, as previously described (Coppi et al., 2005). CSP was eluted from the beads, run on an SDS-PAGE gel which was enhanced, dried and exposed to film. […]

P. berghei sporozoites [2] = format: cell-based, Plasmodium berghei; details: sporozoites preincubated two hours with inhibitor, Hepa 1-6 cells, one hour
Description: %invasion=total sporozites−extracellular sporozites×100/total sporozites
Invasion assays were performed as previously described (Pinzon-Ortiz, C., et al.) with some modifications. […] Cells were then washed, fixed, and sporozoites were stained with a double staining assay that distinguishes between intracellular and extracellular sporozoites (Renia, L., et al.). […]

[3] = test system: CSP cleavage in P. berghei sporozoites; test: Cell contact assay (CSP cleavage on contact with hepatocytes); format: cell-based, Plasmodium berghei
Description: Hepa 1-6 cells were seeded on glass coverslips at a density of 2×10^5 cells per coverslip and grown until confluent. P. berghei sporozoites were incubated in DMEM±10 mM E-64 at 4° C. for two hours. Thirty minutes before sporozoites were added to coverslips, Cytochalasin D (CD) was added to all samples (final concentration, […]). Sporozoites were centrifuged onto coverslips (1250×g) for five minutes at 4° C. Coverslips were then brought to 37° C. for two minutes, fixed with 4% paraformaldehyde and stained with either mAb 3D11 followed by anti-mouse Ig FITC or the N-terminal antiserum (1:100) followed by anti-rabbit Ig FITC. […] As a control, sporozoites were spun onto coverslips without cells using the protocol outlined above.

P. berghei sporozoites [4] = details: sporozoites incubated with inhibitor for two hours, then metabolically labeled
Description: Panel A illustrates P. berghei sporozoites were metabolically labeled with [35 S]-Cys/Met and then washed and kept on ice (lane 1) or chased with cold medium for two hours at 28° C., in the absence (lane 2) or presence of the indicated protease inhibitors (lanes 3-11). After the chase, sporozoites were lysed, CSP was immunoprecipitated and analyzed by SDS-PAGE and autoradiography (abbreviations: Apr, aprotinin; DCl, 3,4 DCl; Leu, leupeptin; Pep, pepstatin; Phen, 1,10 phenanthroline). Panel B illustrates P. falciparum sporozoites were metabolically labeled as above and then kept on ice (lane 1) or chased with cold medium for ninety minutes in the absence (lane 2) or presence of E-64 (lane 3). Samples were processed as outlined above. Panel C illustrates P. berghei sporozoites were preincubated with buffer (lane 1) or the indicated compounds, washed, metabolically labeled with [^35S]-Cys/Met, lysed, and CSP was immunoprecipitated and analyzed by SDS-PAGE and autoradiography. (Abbreviations: Az=sodium azide).
In addition to the above, pulse-chase metabolic labeling experiments were performed with sporozoites of the human malaria parasite, Plasmodium falciparum. […] In order to insure that the protease inhibitors were not toxic to sporozoites, sporozoites were incubated with the various inhibitors for two hours and then propidium iodide (hereinafter, “PI”) was added, which is a fluorescent molecule that enters permeabilized cells.

[5] = target: Plasmodium berghei circumsporozoite protein (CSP), full-length, high molecular weight form (Plasmodium berghei) (UniProt P23093); test: cell-based or functional assay

Compound	effect on CSP processing [1]	effect on sporozoite invasion (P. berghei sporozoites [2])	also measured
c1cnc2c(c1)ccc1cccnc12 [1,10 phenanthroline]	no effect on CSP processing		
O=c1oc(Cl)c(Cl)c2ccccc12 [3,4 DCl, 3,4-dichloroisocoumarin]	Neither compound had an effect on CSP processing	did not have significant inhibitory activity on invasion	
C=C1[C@@H](C)[C@H]2[C@H](Cc3ccccc3)NC(=O)[C@]23[C@H](OC(C)=O)/C=C/[C@@](C)(O)C(=O)[C@@H](C)C/C=C/[C@H]3[C@@H]1O [CD, cytochalasin D]			percentage staining with the N-terminal antiserum ([3]; experiment 1, no cells, visualized with α-N): 85% ± 1.1; Number of Sporozoites Visualized ([3]; experiment 1, wildtype sporozoites, Hepa 1-6, visualized with 3D11): 244 ± 3; Number of Sporozoites Visualized ([3]; experiment 2, GFP sporozoites, Hepa 1-6, visualized by GFP): 452 ± 8; Number of Sporozoites Visualized ([3]; experiment 2, GFP sporozoites, Hepa 1-6, visualized with α-N): 98 ± 2
O=C(O)CN(CCN(CC(=O)O)CC(=O)O)CC(=O)O [EDTA]	no effect on CSP processing		
O=S(=O)(F)Cc1ccccc1 [PMSF, phenylmethylsulfonyl fluoride]	inhibited CSP processing	had inhibitory activity	CSP synthesis after incubation with inhibitor (P. berghei sporozoites [4]): not affected
Cc1ccc(S(=O)(=O)N[C@@H](CCCCN)C(=O)CCl)cc1 [TLCK]	inhibited CSP processing		
CC(=O)N[C@@H](CC(C)C)C(=O)N[C@@H](CC(C)C)C(=O)N[C@H](C=O)CCCNC(=N)N [leupeptin]	inhibited CSP processing	had inhibitory activity	CSP synthesis after incubation with inhibitor (P. berghei sporozoites [4]): not affected
CC(C)CC(=O)N[C@H](C(=O)N[C@H](C(=O)N[C@@H](CC(C)C)[C@@H](O)CC(=O)N[C@@H](C)C(=O)N[C@@H](CC(C)C)[C@@H](O)CC(=O)O)C(C)C)C(C)C [pepstatin] (Isovaleryl-VV[Sta]A[Sta]-OH)	no effect on CSP processing	no effect on invasion	
aprotinin	Neither compound had an effect on CSP processing	did not have significant inhibitory activity on invasion	
mAb 3D11 (antibody)			inhibition of CSP cleavage at 10 µg/ml, pulse-chase metabolic labeling [5]: 50 to 75%
